The results in this text go back to US11236111B2, “Hepatitis B antiviral agents” (Enanta Pharmaceuticals, Inc., priority 2019, dated 2022).

One series concerns HBV. Put plainly: HepAD38 anti-HBV assay: reduction of viral product accumulation (virion DNA by qPCR, HBsAg or HBeAg by ELISA). The class given is cell-based. Particulars: Hepatitis B virus, 120 h, HepAD38 cells, harvest five days after compound addition, 50% reduction of viral product vs no drug controls. The protocol:
Methods: HepAD38 cells are maintained as previously reported (Ladner et al, Antimicrob. Agents Chemother. 1997, […], 1715). Briefly, cells are passaged upon attaining confluency in DMEM/F12 media in the presence of 10% FBS, Penn/Strep, 250 μg/mL G418, and 1 μg/ml tetracycline. Novel compounds are screened by first washing cells three times with PBS to remove tetracycline, and plating in 96 well plates at 35,000 cells/well. Compounds dissolved in DMSO are then diluted 1:200 into wells containing cells. Five days after compound addition, material is harvested for analysis. For an extended 8 day analysis, cells are plated and treated as described above, but media and compound are refreshed on d2 and d5 post initial treatment.
On harvest day, virion DNA is obtained by lysing with Sidestep Lysis and Stabilization Buffer and then quantified via quantitative real time PCR. Commercially available ELISA kits are used to quantitate the viral proteins HBsAg (Alpco) or HbeAg (US Biological) by following the manufacturer's recommended protocol after diluting samples to match the linear range of their respective assays. Irrespective of readout, compound concentrations that reduce viral product accumulation in the cell lysates or supernatants by 50% relative to no drug controls (EC50) are reported; EC50 ranges are as follows: A<0.1 μM; B 0.1-0.4 μM; C>0.4 μM.

Series [1] is described as follows: Compound toxicity, total ATP levels (ATPLite). The class given is cell-based. Particulars: human, HepG2 cells; three days after compound addition; 50% reduction of total ATP vs no drug controls. On the procedure: Compound toxicity is evaluated by seeding cells at 15,000 cells/well and treating with compound as described above.

The compound `C#CCN1CC2(CC3=C(c4ccn(C(F)F)n4)[C@H](c4ccc(F)cc4Cl)N=C(c4nccs4)N3C2)OC1=O` (stereo partly shown) [Example 1] displayed an EC50 with HBV (class symbols) of more than 400 nM. For the compound `C=CCN1CC2(CC3=C(c4ccn(C(F)F)n4)[C@H](c4ccc(F)cc4Cl)N=C(c4nccs4)N3C2)OC1=O` (stereo partly shown) [Example 2], the EC50 in the series with HBV (class symbols) was more than 400 nM. Turning to `O=C1OC2(CC3=C(c4ccn(C(F)F)n4)[C@H](c4ccc(F)cc4Cl)N=C(c4nccs4)N3C2)CN1Cc1ccccc1` (stereo partly shown) [Example 3], in the series with HBV (class symbols), the EC50 is more than 400 nM.

In the case of `C=CCN1C[C@@]2(CC3=C(c4ccn(C(F)F)n4)[C@H](c4ccc(F)cc4Cl)N=C(c4nccs4)N3C2)NC1=O` [Example 4], the half-maximal effective concentration (EC50) with HBV (class symbols) was less than 100 nM. Still for that read-out and setting: in the case of `C=CCN1C[C@]2(CC3=C(c4ccn(C(F)F)n4)[C@H](c4ccc(F)cc4Cl)N=C(c4nccs4)N3C2)NC1=O` [Example 5] it was 100 to 400 nM. As for `O=C1N[C@@]2(CO1)CC1=C(c3cnn(C(F)F)n3)[C@H](c3ccc(F)cc3Cl)N=C(c3nccs3)N1C2` [Example 6], the half-maximal cytotoxic concentration (CC50) at 3 days in series [1] was more than 25000 nM. Further, the half-maximal effective concentration (EC50) in the series with HBV (class symbols) is less than 100 nM. `O=C1N[C@@]2(CO1)CC1=C(c3ccn(C(F)F)n3)[C@H](c3ccc(Cl)c(F)c3)N=C(c3nccs3)N1C2` [Example 7] yielded a CC50 at 3 days in series [1] of more than 25000 nM. For the same compound, the EC50 in the series on HBV (class symbols) is less than 100 nM.

In the series with HBV (given as numeric bound), `O=C1N[C@@]2(CO1)CC1=C(c3ccn(C(F)F)n3)[C@@H](c3ccc(Cl)c(F)c3)N=C(c3nccs3)N1C2` [Example 8] had a concentration giving a half-maximal response (EC50) of more than 100 nM.

Compound `O=C1N[C@@]2(CO1)CC1=C(c3cnn(C(F)F)c3)[C@H](c3ccc(Cl)c(F)c3)N=C(c3nccs3)N1C2` [Example 9] returned a 50% effective concentration (EC50) with HBV (class symbols) of less than 100 nM. On to `O=C1N[C@@]2(CO1)CC1=C(c3cnn(C(F)F)c3)[C@@H](c3ccc(Cl)c(F)c3)N=C(c3nccs3)N1C2` [Example 10], for which the EC50 with HBV (given as numeric bound) was more than 100 nM. Compound `COC(=O)C1=C2C[C@@]3(COC(=O)N3)CN2C(c2nccs2)=N[C@H]1c1ccc(Cl)c(F)c1` [Example 11] returned an EC50 with HBV (class symbols) of less than 100 nM. In the case of `COC(=O)C1=C2C[C@@]3(COC(=O)N3)CN2C(c2nccs2)=N[C@@H]1c1ccc(Cl)c(F)c1` [Example 12], in the series on HBV (given as numeric bound), the EC50 was more than 100 nM.

Turning to `O=C1N[C@]2(CO1)CC1=C(c3ccn(C(F)F)n3)[C@H](c3ccc(Cl)c(F)c3)N=C(c3nccs3)N1C2` [Example 13], in series [1], the cytotoxic concentration (CC50) at 3 days was more than 25000 nM. This compound gave an EC50 in the series with HBV (class symbols) of less than 100 nM. In the case of `O=C1N[C@]2(CO1)CC1=C(c3ccn(C(F)F)n3)[C@@H](c3ccc(Cl)c(F)c3)N=C(c3nccs3)N1C2` [Example 14], the EC50 with HBV (given as numeric bound) is more than 100 nM.

Compound `O=C1N[C@@]2(CO1)CC1=C(c3ccn(C(F)F)n3)[C@H](c3ccc(F)c(F)c3)N=C(c3nccs3)N1C2` [Example 15] registered a CC50 at 3 days in series [1] of more than 25000 nM. The compound also returned an EC50 in the series with HBV (class symbols) of less than 100 nM. On to `O=C1N[C@@]2(CO1)CC1=C(c3ccn(C(F)F)n3)[C@@H](c3ccc(F)c(F)c3)N=C(c3nccs3)N1C2` [Example 16], for which, in the series with HBV (given as numeric bound), the EC50 is more than 100 nM. In the case of `O=C1N[C@@]2(CO1)CC1=C(c3ccn(C(F)F)n3)[C@H](c3ccc(Cl)c(F)c3)N=C(c3ccccn3)N1C2` [Example 17], the EC50 in the series on HBV (given as numeric bound) is more than 100 nM. Same read-out and setting: for `O=C1N[C@@]2(CO1)CC1=C(c3ccn(C(F)F)n3)[C@@H](c3ccc(Cl)c(F)c3)N=C(c3ccccn3)N1C2` [Example 18] the value was more than 100 nM.
